# Reference: patent US20240374546A1, “USES AND METHODS FOR PROMOTING INCREASED MITOCHONDRIAL MASS AND FUNCTION” (Brightseed, Inc., priority 2022, published 2024)
# Entries after “also recorded” stand apart in the source; their conditions may differ.
# Experiments:
# [1] = Triglyceride analysis in liver, serum and stool; assay type: in vivo, mouse; conditions: HFD+NCT vs HFD
# Method: The TG level in mouse liver, serum and stool was measured according to manufacturer's instructions using the Triglyceride Calorimetric Assay Kit (Cat #10010303, Cayman Chemicals, USA). Liver and stool TG was normalized with liver and stool weight, respectively. Fold change was calculated by normalizing to values from mice fed NC.
# IL-6 mRNA [2] = assay: qPCR primary human hepatocytes, IL-6 mRNA; assay type: cell-based; conditions: NCT 5, 15, 40 μM
# Method: (§1) Experiments with primary human hepatocytes were performed by CN-Bio (Cambridge, UK). Briefly, primary human hepatocytes (PHHs), human Kupffer cells (HKs) and human stellate cells (HSCs) were seeded onto CN-Bio's PhysioMimix LC12 MPS culture plates at 6×10^5 cells for PHHs and 6×10^4 cells for HKs and HSCs in 1.6 ml of CN-Bio's HEP-lean media with 5% FCS. Throughout the experiment the cells were maintained at a flow rate of 1 μl/s. After 24 hours (Day 1) of seeding, the media was changed to HEP-lean media and the cells were incubated until day 4 to allow the cells to form microtissues. At day 4 post seeding, media was changed to HEP-fat media and treated with DMSO or NCT (5, 15, 40 μM). Media was replaced on days 6 and 8. Cells were harvested on day 10 for RNA extraction and culture media was collected for ELISA analysis.
# (§2) Total RNA was isolated from liver tissues and primary human hepatocytes using Trizol (Invitrogen). cDNA was amplified using 3 μg of total RNA using qScript cDNA SuperMix (Quanta BioSciences, Beverly, MA, USA). Quantitative real time PCR (RT-PCR) analysis was performed using SYBR® Select Master Mix (Applied Biosystems) and an ABI 7900HT thermal cycler (Applied Biosystems, Thermo Fisher Scientific). Ct values were normalized to 18s rRNA and are expressed as fold change over samples from mice fed NC or cultured human hepatocytes without NCT.
# HSP60 mRNA = assay: qPCR mouse liver, HSP60 mRNA; assay type: in vivo; conditions: HFD+NCT vs HFD
# Method: as §2
# [3] = Blood count analysis (Hemavet); assay type: in vivo, mouse; conditions: HFD versus HFD+NCT
# Method: Mice were anesthetized and 20 μL of whole blood was collected via retro-orbital bleeding in lithium heparin blood collection tubes and 20 different hematologic parameters were measured using a Hemavet 950 FS blood count analyzer (Drew Scientific Group).
# cytochrome C mRNA = assay: qPCR primary human hepatocytes, cytochrome C mRNA; assay type: cell-based; conditions: NCT 5, 15, 40 μM
# Method: as §1, §2
# [4] = Overall tolerability across studies (maximum tolerated dose, two-week IP, long term oral); assay type: in vivo; conditions: short-term maximum tolerated dose study, two-week IP 200 mg/kg bid, long term oral administration
# Source text: Given the chronic nature of disorders of lipotoxicity, the lack of discernable toxicity of NCT is critical, but this will obviously require additional investigation in human clinical trials.
# [5] = tested on: fatty acid oxidation (FAO); assay: Fatty acid oxidation assay in liver lysate; assay type: in vivo, mouse; conditions: HFD+NCT vs HFD
# Method: FAO in liver lysate was measured according to manufacturer's instructions using a calorimetric assay kit (Cat #E-141, Biomedical Research Service Centre, State University of New York, Buffalo, NY).
# The large weight difference between the HFD and HFD+NCT groups in conjunction with decreased subcutaneous and hepatic adiposity was striking. There are only two routes of fat elimination; in the stool by malabsorption, which it was ruled out (FIG. 1E) and by oxidation. Thus, it was hypothesized that NCT was inducing an increase in FAO. Quantification of FAO was done using an assay that measures NADH by the conversion of iodonitrotetrazolium (INT) to INT-Formazan mediated by the NADH-requiring enzyme diaphorase. Performing the assay in the presence and absence of added octanoyl-CoA, which is converted through fatty acid β-oxidation to acetyl-CoA with conversion of NAD+ to NADH, provides specificity for FAO. The level of fatty acid oxidation is determined as the INT-formazan level in the presence of octanoyl CoA minus the level in the absence of octanoyl CoA.
# palmitate-loaded cells = assay: Fat clearance from palmitate-loaded cells; assay type: cell-based; conditions: in vitro
# Sirt1 mRNA = assay: qPCR mouse liver, Sirtuin1 mRNA; assay type: in vivo; conditions: HFD+NCT vs HFD
# Method: as §2
# Sirt3 mRNA = assay: qPCR mouse liver, Sirtuin3 mRNA; assay type: in vivo; conditions: HFD+NCT vs HFD
# Method: as §2
# TNFα mRNA = assay: qPCR mouse liver, TNFα mRNA; assay type: in vivo; conditions: HFD+NCT vs HFD
# Method: as §2
# PPARGC1A mRNA = assay: qPCR primary human hepatocytes, PPARGC1A mRNA; assay type: cell-based; conditions: NCT 5, 15, 40 μM
# Method: as §1, §2
# Parp1 mRNA = assay: qPCR mouse liver, Parp1 mRNA; assay type: in vivo; conditions: HFD+NCT vs HFD
# Method: as §2
# [6] = tested on: succinate dehydrogenase (SDHA); assay: Western blot, mouse liver, SDHA; assay type: in vivo; conditions: HFD+NCT vs HFD
# Method: Mouse liver extracts were prepared by incubation in RIPA buffer (Invitrogen) containing protease inhibitors (Calbiochem, San Diego, CA). Protein was quantified by BCA assay (Thermo Scientific). Protein ([…] for cytochrome C) was separated on 12% or 16% Tri-Glycine gels (Invitrogen) and transferred to Immobilon P membrane (0.2 μm pore size, Millipore). After 1 hour in phosphate-buffered saline-Tween (PBST) with 3% milk, membranes were incubated with antibodies to PPARGC1A(PGC1α) (Cat #NBP1-04676, Novus, 1:1000), SDHA XP (Cat #11998, Cell Signaling 1:1000), or Cytochrome C (Cat #4280, Cell Signaling 1:500), followed by secondary antibody conjugated to horseradish peroxidase (1:5000, Jackson Immune or Cell Signaling). […] After detection, membrane was incubated with Ponceau S solution (Sigma) for 1 hr for normalization to loaded protein.
# IL-6 mRNA [7] = assay: qPCR mouse liver, IL-6 mRNA; assay type: in vivo; conditions: HFD+NCT vs HFD
# Method: as §2
# citrate synthase = assay: Citrate synthase activity in liver homogenate; assay type: in vivo, mouse; conditions: HFD+NCT vs HFD
# Method: Citrate synthase activity in liver homogenate was measured according to manufacturer's instructions using a calorimetry based MitoCheck Citrate Synthase Activity Assay Kit (Cat #701040, Cayman Chemicals, USA).
smiles,measurement,setting,value
"O=C(/C=C/c1ccc(O)c(O)c1)NCCc1ccc(O)cc1 [NCT, N-transcaffeoyltyramine]",hepatic TG,[1]; normalized to liver weight,lower TG
same,circulating TG,"[1]; serum, 10 weeks",no difference
same,IL-6 mRNA in cultured human hepatocytes,IL-6 mRNA [2],reduced
same,HSP60 mRNA in mouse liver,HSP60 mRNA,greatly decreased
same,hematological analysis,[3],no difference
same,cytochrome C mRNA in primary human hepatocytes,cytochrome C mRNA,but not cytochrome C
same,deleterious effects / toxicity,[4],not seen any deleterious effects
same,FAO activity in the presence of octanoyl CoA,[5],increase
same,baseline activity in the absence of octanoyl CoA,[5],increase
same,overall FAO activity (+octanoyl CoA minus −octanoyl CoA),[5],unchanged
same,fat clearance from palmitate-loaded cells,palmitate-loaded cells,induced fat clearance
same,body weight less than mice fed HFD,"HFD+NCT (4000 ppm NCT in chow, approx. 400 mg/kg/d) vs HFD, end of experiment at 10 weeks",~10 gm
same,week at which lower body weight became evident,HFD+NCT vs HFD,5 week
same,difference in body weight,"HFD+NCT vs HFD, 10 weeks",35-40%
same,liver redness,"HFD+NCT vs HFD, 10 weeks",redder livers
same,obesity (appearance),"HFD+NCT vs HFD, 10 weeks",markedly less obese
same,epididymal fat pad weight,"HFD+NCT vs HFD, end of study, normalized to body weight",no change
same,liver weight,"HFD+NCT vs HFD, normalized to body weight",lower liver weight
same,liver size,"HFD+NCT vs HFD, photographs",reduction of liver size
same,physical activity or other behaviors,"mouse, in vivo",no discernible difference
same,Sirt1 mRNA in mouse liver (effect of HFD),Sirt1 mRNA,almost completely reversed
same,Sirt3 mRNA in mouse liver (effect of HFD),Sirt3 mRNA,almost completely reversed
same,TNFα mRNA in mouse liver,TNFα mRNA,significantly reduced
same,PPARGC1A mRNA in primary human hepatocytes,PPARGC1A mRNA,increased
same,Parp1 mRNA level,Parp1 mRNA,not modulated
same,hepatic succinate dehydrogenase protein level (HFD-induced decrease),[6],reversed
same,IL-6 mRNA in mouse liver,IL-6 mRNA [7],significantly reduced
same,citrate synthase activity (HFD-induced decrease),citrate synthase,reversed; also recorded: substantial reversal
